Reference: PMC6934184, “Selective DNA-PKcs inhibition extends the therapeutic index of localized radiotherapy and chemotherapy” (The Journal of Clinical Investigation, 2019)

Biological target: T1, PKN2 (PRK2) (Homo sapiens, UniProt Q16513)
T1 construct: purchased Thermo Fisher Scientific (Life Technologies) SelectScreen
Assay: SelectScreen LanthaScreen
Assay type: binding
Conditions: read-out: % displacement
Outline: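 Percent values come from Thermo SelectScreen profiling of NU5455, combining activity and binding assays. CSF1R was run in Z'LYTE format at Km app ATP, and CAMK1 in Adapta format with ATP listed at 10.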

T1 sequence (Q16513 whole entry): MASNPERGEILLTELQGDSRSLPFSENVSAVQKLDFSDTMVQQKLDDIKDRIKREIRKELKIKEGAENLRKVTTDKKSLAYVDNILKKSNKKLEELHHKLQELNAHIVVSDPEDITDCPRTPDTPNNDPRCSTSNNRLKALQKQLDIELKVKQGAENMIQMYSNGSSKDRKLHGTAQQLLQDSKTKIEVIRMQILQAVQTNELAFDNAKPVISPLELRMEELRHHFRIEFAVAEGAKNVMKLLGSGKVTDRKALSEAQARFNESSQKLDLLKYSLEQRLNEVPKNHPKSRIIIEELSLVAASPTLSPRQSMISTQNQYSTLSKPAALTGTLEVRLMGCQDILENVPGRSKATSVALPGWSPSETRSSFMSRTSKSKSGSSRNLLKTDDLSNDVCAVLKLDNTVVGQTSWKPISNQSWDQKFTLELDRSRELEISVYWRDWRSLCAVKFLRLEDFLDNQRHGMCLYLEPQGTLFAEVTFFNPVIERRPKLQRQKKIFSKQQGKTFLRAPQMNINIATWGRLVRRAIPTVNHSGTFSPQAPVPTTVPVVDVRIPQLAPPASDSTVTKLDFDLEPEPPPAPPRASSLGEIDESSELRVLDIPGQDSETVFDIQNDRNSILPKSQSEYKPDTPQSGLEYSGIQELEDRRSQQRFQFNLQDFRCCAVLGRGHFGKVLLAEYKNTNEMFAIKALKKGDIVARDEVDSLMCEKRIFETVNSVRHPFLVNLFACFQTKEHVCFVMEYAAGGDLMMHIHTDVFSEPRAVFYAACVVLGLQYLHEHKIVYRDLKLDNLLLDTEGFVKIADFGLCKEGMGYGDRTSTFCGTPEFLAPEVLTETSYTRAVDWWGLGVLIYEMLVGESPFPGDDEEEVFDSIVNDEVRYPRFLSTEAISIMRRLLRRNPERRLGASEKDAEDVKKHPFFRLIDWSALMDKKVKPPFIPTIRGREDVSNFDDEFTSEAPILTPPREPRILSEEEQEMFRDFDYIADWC

CN(C(=O)CN1CCOCC1)c1ccc2sc3c(-c4cccc5c(=O)cc(N6CC7CCC(C6)O7)oc45)cccc3c2c1 [NU5455]
inhibition at 1 µM: -1%
